These results are taken from patent US20100016340A1, “PHARMACEUTICAL COMPOUNDS” (Astex Therapeutics Limited, priority 2006, published 2010).

Assay [1] concerns the target T1, PKB-PIF (Homo sapiens, UniProt P31751).
T1 construct: made in house
The assay can be described thus: Measurement of PKB kinase inhibitory activity (IC50), 33P-ATP phosphocellulose filter assay. In kind it is biochemical. To be noted: 0.6 nM enzyme, 30 μM ATP, 25 μM AKTide-2T substrate, 20 minutes; read-out: IC50, concentration of test compound required to inhibit 50% of the PKB activity. The procedure:
The inhibition of protein kinase B (PKB) activity by compounds can be determined essentially as described by Andjelkovic et al. (Mol. Cell. Biol. 19, 5061-5072 (1999)) but using a fusion protein described as PKB-PIF and described in full by Yang et al (Nature Structural Biology 9, 940-944 (2002)). […] A final concentration of 0.6 nM enzyme is used in a buffer that includes 20 mM MOPS pH 7.2, 30 μM ATP/γ^33P-ATP and 25 μM substrate. Compounds are added in DMSO solution to a final DMSO concentration of 2.5%. The reaction is allowed to proceed for 20 minutes before addition of excess orthophosphoric acid to quench activity. The reaction mixture is transferred to a phosphocellulose filter plate where the peptide binds and the unused ATP is washed away. After washing, scintillant is added and the incorporated activity measured by scintillation counting.
The % inhibition of the PKB activity is calculated and plotted in order to determine the concentration of test compound required to inhibit 50% of the PKB activity (IC50).

Assay [2] concerns the target T2, PKA catalytic domain (Homo sapiens, UniProt P17612).
T2 construct: using the PKA catalytic domain from Upstate Biotechnology (#14-440); purchased Upstate Biotechnology 14-440
The assay can be described thus: Measurement of PKA kinase inhibitory activity (IC50), 33P-ATP filter plate assay. To be noted: 1 nM enzyme, 40 μM ATP, 20 minutes; read-out: IC50, concentration of test compound required to inhibit 50% of the PKA activity. Format: biochemical. The procedure: Compounds of the invention can be tested for PK inhibitory activity using the PKA catalytic domain from Upstate Biotechnology (#14-440) and the 9 residue PKA specific peptide ([…]), also from Upstate Biotechnology (#12-257), as the substrate. A final concentration of 1 nM enzyme is used in a buffer that includes 20 mM MOPS pH 7.2, 40 μM ATP/γ^33P-ATP and […] substrate. Compounds are added in dimethylsulphoxide (DMSO) solution to a final DMSO concentration of 2.5%. The reaction is allowed to proceed for 20 minutes before addition of excess orthophosphoric acid to quench activity. Unincorporated γ^33P-ATP is then separated from phosphorylated proteins on a Millipore MAPH filter plate. The plates are washed, scintillant is added and the plates are then subjected to counting on a Packard Topcount.
The % inhibition of the PKA activity is calculated and plotted in order to determine the concentration of test compound required to inhibit 50% of the PKA activity (IC50).

Where a name gives a salt, the structure may show the parent alone.

T1 sequence (P31751 with tags, fused parts or gaps limits assumed): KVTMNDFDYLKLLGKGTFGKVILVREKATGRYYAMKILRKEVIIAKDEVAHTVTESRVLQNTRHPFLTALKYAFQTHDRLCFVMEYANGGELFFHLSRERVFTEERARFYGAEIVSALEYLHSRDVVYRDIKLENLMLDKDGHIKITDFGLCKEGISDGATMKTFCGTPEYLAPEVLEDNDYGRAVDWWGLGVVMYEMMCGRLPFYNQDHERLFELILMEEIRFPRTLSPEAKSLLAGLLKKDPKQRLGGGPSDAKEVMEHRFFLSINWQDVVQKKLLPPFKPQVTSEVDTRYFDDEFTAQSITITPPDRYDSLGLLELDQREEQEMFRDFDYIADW

In the case of `NC1(C(=O)NCc2ccc(Cl)c(-c3ccccc3)c2)CCN(c2ncnc3[nH]ccc23)CC1` [Example 2, 4-Amino-1-(7H-pyrrolo[2,3-d]pyrimidin-4-yl)-piperidine-4-carboxylic acid (6-chloro-biphenyl-3-ylmethyl)-amide hydrochloride], in assay [1], the IC50 was < 1000 nM.
As to `NCC1(c2cccc(-c3ccccc3)c2)CCN(c2ncnc3[nH]ccc23)CC1` [Example 4, C-[4-Biphenyl-3-yl-1-(7H-pyrrolo[2,3-d]pyrimidin-4-yl)piperidin-4-yl]methylamine], the IC50 in assay [2] was < 10 µM; in assay [1], < 1000 nM.
As for `COc1ccc(-c2cccc(C3(CN)CCN(c4ncnc5[nH]ccc45)CC3)c2)cc1` [Example 5, C-[4-(4′-Methoxybiphenyl-3-yl)-1-(7H-pyrrolo[2,3-d]pyrimidin-4-yl)piperidin-4-yl]methylamine], the IC50 in assay [1] is < 1000 nM.
On to `NC1(C(=O)NCc2ccc(Cl)cc2)CCN(c2ncnc3[nH]c(=O)[nH]c23)CC1` [Example 6, 4-Amino-1-(8-oxo-8,9-dihydro-7H-purin-6-yl)-piperidine-4-carboxylic acid 4-chloro-benzylamide], for which the IC50 in assay [2] is < 10 µM.
Take `NC1(C(=O)NCc2ccc(Cl)cc2F)CCN(c2ncnc3[nH]c(=O)[nH]c23)CC1` [Example 7, 4-Amino-1-(8-oxo-8,9-dihydro-7H-purin-6-yl)-piperidine-4-carboxylic acid 4-chloro-2-fluoro-benzylamide]: the IC50 was < 10 µM in assay [2] and < 1000 nM in assay [1].
As to `NCC1(c2ccc(OC(F)(F)F)cc2)CCN(c2ncnc3[nH]c(=O)[nH]c23)CC1` [Example 10, 6-[4-Aminomethyl-4-(4-trifluoromethoxyphenyl)piperidin-1-yl]-7,9-dihydropurin-8-one], the IC50 in assay [1] was < 1000 nM.
The same measure, in the same setting: the value for `NC1(Cc2ccc(Cl)cc2)CCN(c2ncnc3[nH]c(=O)[nH]c23)CC1` [Example 11, 6-[4-Amino-4-(4-chlorobenzyl)piperidin-1-yl]-7,9-dihydropurin-8-one] was < 1000 nM.
For `NC1(c2ccc(Cl)cc2)CCN(c2ncnc3[nH]c(=O)[nH]c23)CC1` [Example 12, 6-[4-Amino-4-(4-chlorophenyl)piperidin-1-yl]-7,9-dihydropurin-8-one], the IC50 is < 10 µM in assay [2] and < 1000 nM in assay [1].
As for `CC(C)(C)c1ccc(CC2(N)CCN(c3ncnc4[nH]ncc34)CC2)cc1` [Example 13, 4-(4-tert-Butyl-benzyl)-1-(1H-pyrazolo[3,4-d]pyrimidin-4-yl)-piperidin-4-ylamine], the IC50 in assay [1] is < 1000 nM.
